Source: US8455491B2, “6-cycloamino-3-(pyridazin-4-yl)imidazo[1,2-b]pyridazine and derivatives and pharmaceutical compositions comprising the same” (Sanofi, priority 2007, dated 2013)

Biological target: T1, casein kinase 1 epsilon (CK1 epsilon) (Homo sapiens, UniProt P49674)
T1 construct: Invitrogen Corporation (named as alternative)
Assay: Filter-plate assay of ATP-33P, inhibition of casein phosphorylation by CK1 epsilon
Type: biochemical
Details: casein substrate, ATP 10 μM, 2 hours at ambient temperature
Experimental: The capacity of the compounds of the invention to inhibit the phosphorylation of casein by casein kinase 1 epsilon and delta may be evaluated according to the procedure described in US 2005/0131012.
Filter-Plate Assay of ATP-^33P for the Screening of CK1 Epsilon Inhibitors:
The effect of the compounds on inhibition of the phosphorylation of casein by the enzyme casein kinase 1 epsilon (CK1 epsilon) is measured, using a casein assay with filtration of ATP-^33P in vitro.
Casein kinase 1 epsilon (0.58 mg/ml) is obtained via fermentation and purification processes performed according to methods that are well known to those skilled in the art, or may also be obtained from Invitrogen Corporation™ (human CK1 epsilon).
The compounds are tested at five different concentrations so as to generate IC50 values, i.e. the concentration at which a compound is capable of inhibiting the enzymatic activity by 50%, or alternatively the percentage of inhibition at a concentration of 10 micromolar.
“U”-bottomed Falcon plates are prepared by placing 5 μL of solutions of the compounds according to the invention at concentrations of 10, 1, 0.1, 0.01 or 0.001 μM in various wells. The solutions of the compounds according to the invention at these various concentrations are prepared by diluting in a test buffer (50 mM Tris, pH 7.5, […], 2 mM DTT and 1 mM EGTA) a stock solution in DMSO at a concentration of 10 mM. Next, 5 μL of dephosphorylated casein are added to a final concentration of 0.2 μg/μL, 20 μl of CK1 epsilon to a final concentration of 3 ng/μl, and 20 μl of ATP-^33P to a final concentration of 0.02 μCi/μl mixed with cold ATP (10 μM final—approximately 2×10^6 CPM per well). The final total test volume per well is equal to 50 μl.
The “U”-bottomed Falcon® test plate mentioned above is vortexed, and then incubated at ambient temperature for 2 hours. After 2 hours, the reaction is stopped by adding an ice-cold solution of 65 μl of ATP (2 mM) prepared in test buffer.
100 μl of the reaction mixture are then transferred from the “U”-bottomed Falcon® plate into Millipore® MAPH filter plates, preimpregnated with 25 μl of ice-cold 100% TCA. […]
The plates are left to dry overnight at ambient temperature. […] The radiation emitted by each well is then measured for 2 minutes in a Packard® Topcount NXT scintillation counter, in which the values of CPM/well are measured.
The percentage inhibition of the capacity of the enzyme to phosphorylate the substrate (casein) is determined for each concentration of compound tested. These inhibition data expressed as percentages are used to calculate the IC50 value for each compound compared with the controls.
The kinetic studies determined the KM value for ATP as being 21 μM in this test system.

T1 sequence (P49674 whole entry): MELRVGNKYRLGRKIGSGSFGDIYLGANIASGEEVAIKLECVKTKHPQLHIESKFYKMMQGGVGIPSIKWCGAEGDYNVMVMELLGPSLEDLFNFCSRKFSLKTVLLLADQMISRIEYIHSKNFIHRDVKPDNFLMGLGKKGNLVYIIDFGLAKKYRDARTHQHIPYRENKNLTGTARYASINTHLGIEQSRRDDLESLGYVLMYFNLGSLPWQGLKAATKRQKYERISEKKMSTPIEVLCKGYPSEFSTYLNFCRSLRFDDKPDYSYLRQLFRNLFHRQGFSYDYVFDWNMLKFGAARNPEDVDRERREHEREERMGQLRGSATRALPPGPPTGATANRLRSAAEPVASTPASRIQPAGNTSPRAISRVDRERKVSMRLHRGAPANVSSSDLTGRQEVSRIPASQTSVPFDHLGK

| IC50 [nM] | SMILES |
| --- | --- |
| 134 to 166 | CC(C)(O)CCN1CCN(c2ccc3nc(-c4ccc(F)cc4)c(-c4ccnnc4)n3n2)CC1 [compound 21, 4-{4-[2-(4-fluorophenyl)-3-pyridazin-4-yl-imidazo[1,2-b]pyridazin-6-yl]piperazin-1-yl}-2-methylbutan-2-ol] |
| 54 to 69 | CC(C)N1CC2CN(c3ccc4nc(-c5ccc(F)cc5)c(-c5ccnnc5)n4n3)CC2C1 (stereo not drawn) [compound 28, 2-(4-fluorophenyl)-6-(5-isopropylhexahydropyrrolo[3,4-c]pyrrol-2-(1H)-yl)-3-pyridazin-4-yl-imidazo[1,2-b]pyridazine] |

System: not given
Assay: not given
Details: not given

| melting point [°C] | SMILES |
| --- | --- |
| 184 to 189 | FCC1CN(c2ccc3nc(-c4ccc(F)cc4)c(-c4ccnnc4)n3n2)CCN1 (racemic) [compound 40, (+/−)-6-(3-fluoromethylpiperazin-1-yl)-2-(4-fluorophenyl)-3-pyridazin-4-ylimidazo[1,2-b]pyridazine] |
| 226 to 228 | CC1(C)CN(c2ccc3nc(-c4ccc(F)cc4)c(-c4ccnnc4)n3n2)CCN1 [Compound No. 3, 6-(3,3-dimethylpiperazin-1-yl)-2-(4-fluorophenyl)-3-pyridazin-4-yl-imidazo[1,2-b]pyridazine] |
| 197 to 199 | C[C@@H]1CN(c2ccc3nc(-c4ccc(F)cc4)c(-c4ccnnc4)n3n2)C[C@H](C)N1 [compound 4, 6-(cis-3,5-dimethylpiperazin-1-yl)-2-(4-fluorophenyl)-3-pyridazin-4-yl-imidazo[1,2-b]pyridazine] |
| 156 to 158 | FCCN1CCN(c2ccc3nc(-c4ccccc4)c(-c4ccnnc4)n3n2)CC1 [compound 7, 6-[4-(2-fluoroethyl)piperazin-1-yl]-2-phenyl-3-pyridazin-4-yl-imidazo[1,2-b]pyridazine] |
| 197 to 199 | CC(C)N1CCN(c2ccc3nc(-c4cccc(F)c4)c(-c4ccnnc4)n3n2)CC1 [compound 10, 2-(3-fluorophenyl)-6-(4-isopropylpiperazin-1-yl)-3-pyridazin-4-yl-imidazo[1,2-b]pyridazine] |
| 183 to 184 | Cc1cc(C)cc(-c2nc3ccc(N4CCN(C(C)C)CC4)nn3c2-c2ccnnc2)c1 [compound 13, 2-(3,5-dimethylphenyl)-6-(4-isopropylpiperazin-1-yl)-3-pyridazin-4-yl-imidazo[1,2-b]pyridazine] |
| 200 to 202 | CC(C)(O)CN1CCN(c2ccc3nc(-c4ccc(F)cc4)c(-c4ccnnc4)n3n2)CC1 [compound 20, 1-{4-[2-(4-fluorophenyl)-3-pyridazin-4-yl-imidazo[1,2-b]pyridazin-6-yl]piperazin-1-yl}-2-methylpropan-2-ol] |
| 148 to 150 | CC(C)(O)CCN1CCN(c2ccc3nc(-c4ccc(F)cc4)c(-c4ccnnc4)n3n2)CC1 [compound 21, 4-{4-[2-(4-fluorophenyl)-3-pyridazin-4-yl-imidazo[1,2-b]pyridazin-6-yl]piperazin-1-yl}-2-methylbutan-2-ol] |
| 205 to 207 | Fc1ccc(-c2nc3ccc(N4C[C@@H]5C[C@H]4CN5)nn3c2-c2ccnnc2)cc1 [compound 23, 6-((1S,4S)-2,5-diazabicyclo[2.2.1]hept-2-yl)-2-(4-fluorophenyl)-3-pyridazin-4-yl-imidazo[1,2-b]pyridazine] |
| 175 to 177 | OCCN1C[C@@H]2C[C@H]1CN2c1ccc2nc(-c3ccc(F)cc3)c(-c3ccnnc3)n2n1 [compound 24, 2-{5-[2-(4-fluorophenyl)-3-pyridazin-4-yl-imidazo[1,2-b]pyridazin-6-yl]-(1S,4S)-2,5-diazabicyclo[2.2.1]hept-2-yl}-ethanol] |
| 201 to 203 | CC(C)N1C[C@@H]2C[C@H]1CN2c1ccc2nc(-c3ccc(F)cc3)c(-c3ccnnc3)n2n1 [compound 25, 2-(4-fluorophenyl)-6-(5-isopropyl-(1S,4S)-2,5-diazabicyclo[2.2.1]hept-2-yl)-3-pyridazin-4-yl-imidazo[1,2-b]pyridazine] |
| 203 to 205 | Fc1ccc(-c2nc3ccc(N4CCC5(CCCNC5)CC4)nn3c2-c2ccnnc2)cc1 [compound 31, 9-[2-(4-fluorophenyl)-3-pyridazin-4-yl-imidazo[1,2-b]pyridazin-6-yl]-2,9-diaza-spiro[5.5]undecane] |
| 212 to 214 | Fc1ccc(-c2nc3ccc(N4CCC5(CC4)CNCCO5)nn3c2-c2ccnnc2)cc1 [compound 32, 9-[2-(4-fluorophenyl)-3-pyridazin-4-yl-imidazo[1,2-b]pyridazin-6-yl]-1-oxa-4,9-diaza-spiro[5.5]undecane] |
| 182 to 184 | Fc1ccc(-c2nc3ccc(N4CCC(N5CCCC5)C4)nn3c2-c2ccnnc2)cc1 (stereo not drawn) [compound 33, 6-[1,3]bipyrrolidinyl-1′-yl-2-(4-fluorophenyl)-3-pyridazin-4-yl-imidazo[1,2-b]pyridazine] |
| 196 to 198 | Fc1ccc(-c2nc3ccc(N4CCC(N5CCCC5)CC4)nn3c2-c2ccnnc2)cc1 [compound 34, 2-(4-fluorophenyl)-3-pyridazin-4-yl-6-(4-pyrrolidin-1-yl-piperidin-1-yl)-imidazo[1,2-b]pyridazine] |
| 154 to 157 | CN1CC2CN(c3ccc4nc(-c5ccccc5)c(-c5ccnnc5)n4n3)CC2C1 (stereo not drawn) [compound 41, 6-(5-methylhexahydropyrrolo[3,4-c]pyrrol-2(1H)-yl)-2-phenyl-3-pyridazin-4-ylimidazo[1,2-b]pyridazine] |
| 168 to 170 | CN1CC2CN(c3ccc4nc(-c5cccc(F)c5)c(-c5ccnnc5)n4n3)CC2C1 (stereo not drawn) [compound 42, 2-(3-fluorophenyl)-6-(5-methylhexahydropyrrolo[3,4-c]pyrrol-2(1H)-yl)-3-pyridazin-4-ylimidazo[1,2-b]pyridazine] |
| 255 to 257 | Cc1cc(N2CC3CN(C)CC3C2)nn2c(-c3ccnnc3)c(-c3ccc(F)cc3)nc12 (stereo not drawn) [compound 44, 2-(4-fluorophenyl)-8-methyl-6-(5-methylhexahydropyrrolo[3,4-c]pyrrol-2(1H)-yl)-3-pyridazin-4-ylimidazo[1,2-b]pyridazine] |
| 186 to 188 | CN1CC2CN(c3ccc4nc(-c5ccc(F)c(F)c5)c(-c5ccnnc5)n4n3)CC2C1 (stereo not drawn) [compound 45, 2-(3,4-difluorophenyl)-6-(5-methylhexahydropyrrolo[3,4-c]pyrrol-2(1H)-yl)-3-pyridazin-4-ylimidazo[1,2-b]pyridazine] |
